Laboratory results as given in patent US6566338B1, “Caspase inhibitors for the treatment and prevention of chemotherapy and radiation therapy induced cell death” (Cytovia, Inc., priority 1999, dated 2003).

What was measured:
Jurkat T leukemia cells = experiment: Propidium iodide uptake assay of apoptosis induced by chemotherapeutic agents or UV irradiation in Jurkat T cells; assay type: cell-based; details: 18 h
Procedure: Jurkat T leukemia cells were grown in RPMI 1640 media (Life Technologies, Inc.)+10% FCS (Sigma Chemical Company) in a 5% CO2 -95% humidity incubator at 37° C., and maintained at a cell density between 4 and 8×10^5 cells/ml. 1×10^6 cells were treated with Doxorubicin (1 μM) or Paclitaxel (20 μM) or UV irradiation (40 J/m^2) with or without the caspase inhibitor Z-VD-fmk (10 μM) and incubated at 37° C. for 18 h. As a control, cells were also incubated with DMSO. At 18 h cells were observed under phase contrast microscopy to visualize any morphological changes induced by the apoptotic stimuli. Cells were assessed for viability by a propidium iodide uptake assay. Briefly, 20 μl of propidium solution containing 100 μg/ml of propidium iodide was added to 200 μl of cells and transferred to 12×75mm polystyrene tubes and analyzed on a flow cytometer. All flow cytometry analyses were performed on FACScalibur (Becton Dickinson) using CellQuest analysis software.
FIGS. 1A-C depict photographs of Jurkat cells: FIG. 1A, DMSO treated control cells; FIG. 1B, cells treated with doxorubicin (1 μM); FIG. 1C, cells treated with doxorubicin (1 μM) and Z-VD-fmk (10 μM). FIG. 1D depicts a bar graph showing percentage of cell apoptosis as measured by a propidium iodide uptake assay: a, DMSO treated control cells; b, cells treated with doxorubicin; c, cells treated with doxorubicin and Z-VD-fmk.
FIGS. 2A-C depict photographs of Jurkat cells: FIG. 2A, DMSO treated control cells; FIG. 2B, cells treated with paclitaxel (20 μM); FIG. 2C, cells treated with paclitaxel (20 μM) and Z-VD-fink (10 μM). FIG. 2D depicts a bar graph showing percentage of cell apoptosis as measured by a propidium iodide uptake assay: a, DMSO treated control cells; b, cells treated with paclitaxel; c, cells treated with paclitaxel and Z-VD-fink.
FIGS. 3A-C depict photographs of Jurkat cells: FIG. 3A, DMSO treated control cells; FIG. 3B, cells treated with UV irradiation (40 J/m^2); FIG. 3C, cells treated with UV irradiation (40 J/m2) and Z-VD-fmk (10 μM). […]

[1] = Weight change and survival in the hamster mucositis study; assay type: in vivo, Golden Syrian hamsters; details: at the doses used: 20 mg/kg IP; 0.36 and 0.072 mg/ml topical
Description: i) Every day for the period of the study (day −2 to day 28), each animal was weighed and its survival recorded (to accommodate the schedules of the study site weights were taken every other day starting on day 17 and continuing to day 28).
Male Golden Syrian hamsters (Charles River Laboratories or Harlan Sprague Dawley), aged 5 to 6 weeks, with body weights of approximately 90 g at project commencement, were used. Animals were individually numbered using an ear punch and housed in small groups of 2 animals per cage. Animals were acclimatized for at least one week prior to project commencement. During this period, the animals were observed daily in order to reject animals that present poor condition.
Topical dosing of animals was done three times per day. For topical treatments, a needleless tuberculin syringe, containing 0.2 ml of the test compound in 0.05M Tris (pH 8.0), was inserted into the left cheek pouch and the drug deposited into the pouch. Intraperitoneal injections of the compound were done once a day at a dose of 20 mg/kg and a drug concentration of 3-6 mg/ml in 0.05M Tris (pH 8.0). […]
Mucositis Evaluation The mucositis score, weight change and survival were measured as outcomes in this study. […] Mucositis was scored visually by comparison to a validated photographic scale, ranging from 0 for normal, to 5 for severe ulceration (clinical scoring). […]

[2] = test system: oral mucositis induced by acute irradiation in hamsters; experiment: Radiation-induced oral mucositis in hamsters (acute radiation model, mucositis scoring); assay type: in vivo, Golden Syrian hamsters; details: for days with ulcerations (animal days with mucositis score of 3 or more) / daily mucositis scores, rank sum analysis vs vehicle control / reduction in ulceration vs vehicle control: day −2 to day 16; for days with ulcerations (animal days with mucositis score of 3 or more): vehicle control 56 days
Description: A hamster model of chemotherapy-induced mucositis and, more recently, a model of radiation-induced mucositis has been developed (Sonis S. et al. Oral Surg. Oral. Med. Oral Pathol. 69:437-443 (1990) and Sonis S. et al. Cancer, 85:2103-13 (1999)). In the latter model, specific doses of acute radiation are targeted to the designated mucosa, with protection of other areas by a customized lead shield.
The objective of this study was to assess the effect of the topical and IP administration of (3R,S)-5-fluoro-3-[(2S)-3-methyl-1-oxo-2-(phenylcarbam-oyloxy)butyl]amino-4-oxo-pentanoic acid (a caspase inhibitor described in U.S. Application Ser. Nos. 60/151,077 and 60/158,373), in attenuating the development and progress of oral mucositis induced by acute irradiation in hamsters. Mucositis scores in hamsters receiving different doses of the compound were compared to those in hamsters receiving vehicle control, in order to detect statistically significant differences in the onset, duration or severity of the disorder.
Thirty-two (32) hamsters were randomly divided into four treatment groups with eight (8) animals per group. Each group was assigned a different treatment as follows:
Group 1: Vehicle control—topical vehicle control, tid (3 times daily), day −2 to day 16.
Group 2: Test compound at 20 mg/kg, IP once per day, day −2 to day 16.
Group 3: Test compound at 0.36 mg/ml (0.2 ml), topical, tid, day −2 to day 16.
Group 4: Test compound at 0.072 mg/ml (0.2 ml), topical, tid, day −2 to day 16.
viii) Starting on day 6 and continuing every second day thereafter (days 8, 10, 12, 14, 16, 18, 20, 22, 24, 26 & 28), each animal was photographed and evaluated for mucositis scoring.
dose of radiation (35 Gy/dose) was administered to all animals on Day 0. Radiation was generated with a 250 kilovolt potential (15-mA) source at a focal distance of 50 cm, hardened with a 0.35 mm Cu filtration system. Irradiation targeted the left buccal pouch mucosa at a rate of 121.5 cGy/minute. Prior to irradiation, animals were anesthetized with an intraperitoneal injection of sodium pentobarbital (80 mg/kg). The left buccal pouch was everted, fixed and isolated using a lead shield.
Topical dosing of animals was done three times per day. For topical treatments, a needleless tuberculin syringe, containing 0.2 ml of the test compound in 0.05M Tris (pH 8.0), was inserted into the left cheek pouch and the drug deposited into the pouch. Intraperitoneal injections of the compound were done once a day at a dose of 20 mg/kg and a drug concentration of 3-6 mg/ml in 0.05M Tris (pH 8.0). Dosing began on day −2 for all groups. In all groups treatment continued until day 16.
Mucositis Evaluation The mucositis score, weight change and survival were measured as outcomes in this study. For the evaluation of mucositis, the animals were anesthetized with inhalation anesthetics, and the left pouch everted. Mucositis was scored visually by comparison to a validated photographic scale, ranging from 0 for normal, to 5 for severe ulceration (clinical scoring). In descriptive terms, this scale is defined as follows: […]
A score of 1-2 is considered to represent a mild stage of the disease, whereas a score of 3-5 is considered to indicate moderate to severe mucositis. Following visual scoring, a photograph was taken of each animal's mucosa using a standardized technique. At the conclusion of the experiment, all films were developed and the photographs randomly numbered. At least two independent trained observers graded the photographs in blinded fashion using the above described scale (blinded scoring).

| SMILES | doxorubicin induced cell death in Jurkat cells (Jurkat T leukemia cells; Doxorubicin 1 μM, Z-VD-fmk 10 μM, FIGS. 1A-D) | paclitaxel induced cell death in Jurkat cells (Jurkat T leukemia cells; Paclitaxel 20 μM, Z-VD-fmk 10 μM, FIGS. 2A-D) | UV irradiation induced cell death in Jurkat cells (Jurkat T leukemia cells; UV irradiation 40 J/m^2, Z-VD-fmk 10 μM, FIGS. 3A-D) | systemic toxicity (mortality due to the treatment) [1] | days with ulcerations (animal days with mucositis score of 3 or more) ([2]; 0.072 mg/ml (0.2 ml) topical tid) [days] | daily mucositis scores, rank sum analysis vs vehicle control ([2]; 0.072 mg/ml topical tid) | reduction in ulceration vs vehicle control ([2]; 0.072 mg/ml topical tid, p=0.061, not significant) [%] | days with ulcerations (animal days with mucositis score of 3 or more) ([2]; 0.36 mg/ml (0.2 ml) topical tid) [days] | daily mucositis scores, rank sum analysis vs vehicle control ([2]; 0.36 mg/ml topical tid) | reduction in ulceration vs vehicle control ([2]; 0.36 mg/ml topical tid, p<0.001) [%] | daily mucositis scores, rank sum analysis vs vehicle control ([2]; 20 mg/kg IP once per day) | reduction in ulceration vs vehicle control ([2]; 20 mg/kg IP once per day, p=0.068, not significant) [%] | days with ulcerations (animal days with mucositis score of 3 or more) ([2]; 20 mg/kg IP once per day) [days] | onset of ulceration ([2]; day 0 to day 16, all treatment groups) |
| --- | --- | --- | --- | --- | --- | --- | --- | --- | --- | --- | --- | --- | --- | --- |
| CC(C)[C@H](NC(=O)OCc1ccccc1)C(=O)NC(CC(=O)O)C(=O)CF (some centres unmarked) [Z-VD-fmk] | blocks doxorubicin induced cell death | blocks paclitaxel induced cell death | blocks UV irradiation induced cell death |  |  |  |  |  |  |  |  |  |  |  |
| CC(C)[C@H](OC(=O)Nc1ccccc1)C(=O)NC(CC(=O)O)C(=O)CF (stereo partly drawn) [test compound, (3R,S)-5-Fluoro-3-[(2S)-3-methyl-1-oxo-2-(phenylcarbamoyloxy)butyl]amino-4-oxo-pentanoic Acid] |  |  |  | no systemic toxicity | 42 | Significance was achieved only on day 18 | 25 | 27 | significant reduction of mucositis on days 18, 20, 22 & 26 | 51.8 | significant reduction in mucositis severity on days 20 and 22 | 24.8 | 39 | no apparent reduction in the onset of ulceration |
